The values that follow come from patent publication US20240368118A1, “CEREBLON BINDING COMPOUNDS, COMPOSITIONS THEREOF, AND METHODS OF TREATMENT THEREWITH” (CELGENE CORPORATION, priority 2021, published 2024).

The target in this assay is T1, AR (Homo sapiens, UniProt P10275).
T1 construct: endogenous in cells; host or cells: VCaP cells
T1 sequence (P10275 1-920): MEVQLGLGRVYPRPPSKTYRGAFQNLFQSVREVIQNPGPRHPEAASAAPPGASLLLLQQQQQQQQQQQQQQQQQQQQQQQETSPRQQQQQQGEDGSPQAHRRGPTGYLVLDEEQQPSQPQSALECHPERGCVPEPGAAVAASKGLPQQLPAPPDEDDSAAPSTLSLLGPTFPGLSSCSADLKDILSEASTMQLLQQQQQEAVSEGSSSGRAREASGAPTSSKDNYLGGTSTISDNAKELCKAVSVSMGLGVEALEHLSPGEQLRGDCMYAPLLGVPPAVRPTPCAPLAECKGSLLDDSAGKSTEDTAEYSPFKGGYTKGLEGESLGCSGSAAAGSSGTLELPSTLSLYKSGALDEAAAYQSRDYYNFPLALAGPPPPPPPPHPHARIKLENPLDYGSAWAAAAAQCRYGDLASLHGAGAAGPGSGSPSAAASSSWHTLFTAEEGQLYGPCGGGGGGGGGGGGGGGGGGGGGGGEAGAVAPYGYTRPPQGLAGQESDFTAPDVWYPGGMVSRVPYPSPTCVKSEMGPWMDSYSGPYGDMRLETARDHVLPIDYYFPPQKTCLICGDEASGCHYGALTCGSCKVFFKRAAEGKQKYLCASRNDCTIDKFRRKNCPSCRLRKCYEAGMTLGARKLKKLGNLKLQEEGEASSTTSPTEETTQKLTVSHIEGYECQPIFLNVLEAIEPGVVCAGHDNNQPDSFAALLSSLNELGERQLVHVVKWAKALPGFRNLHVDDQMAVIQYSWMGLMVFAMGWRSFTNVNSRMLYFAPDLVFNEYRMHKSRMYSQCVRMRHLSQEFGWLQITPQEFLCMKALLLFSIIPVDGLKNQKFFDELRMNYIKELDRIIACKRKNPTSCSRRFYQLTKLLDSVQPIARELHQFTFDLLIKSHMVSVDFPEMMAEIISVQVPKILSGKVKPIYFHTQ
In words: VCAP AR Degradation Assay. To be noted: VCaP cells, 24 h; for DC50: AR ELISA, concentration when AR level = 50% of DMSO control; for Ymin: lowest AR level normalized to DMSO control. Type of assay: cell-based. The protocol: VCAP AR Degradation Assay. Test compounds were pre-dispensed into a Corning CellBind 96-well clear bottom plate (Cat #3300) using an acoustic dispenser to make a 10-point concentration series at 1:3 dilution for each compound. The final top concentration of each compound was 5 μM. DMSO at a final concentration of 0.1% was used as a control. VCaP cells cultured in DMEM with 8% fetal bovine serum (FBS) were seeded at 50K cells per well in a 200 μL volume into the compound plate and incubated at 37° C. in a C02 incubator for 24 h. The medium was carefully removed from the cells and the plate was placed on ice. One hundred μL of ice-cold 1× cell lysis buffer from Cell Signaling Technologies (Cat #9803) was added to each well of the cells and the plate was incubated at 4° C. on a shaker for 1 h. Fifteen μL of cell lysate was used for AR ELISA detection using a PathScan Total Sandwich AR ELISA kit (Cell Signaling Technology, Cat #12580). AR levels in compound-treated wells were normalized to that of DMSO control and expressed as percent of control (PoC) (y). A Four Parameter Logistic Model (Sigmoidal Dose-Response Model) was used to determine the compound's DC50, and EC50, using the following equation: […]
The lowest measured AR level normalized to DMSO control in response to compound treatment, termed Y value, was used to characterize the compound-mediated AR degradation efficiency.

Molecules are shown by their SMILES. Structures can show the parent of a compound that is named as a salt.

The term DC50 denotes the concentration giving 50% degradation. Higher therefore signals degradation only at high concentration. For `CC1(C)C(=O)N(c2cnc(C#N)c(C(F)(F)F)c2)C(=S)N1[C@H]1CC[C@H](OCCCN2CCN(CC(=O)Nc3ccc(C4CCC(=O)NC4=O)cc3)[C@@H](C(F)(F)F)C2)CC1` (stereo partly drawn) [Cmpd 34, 2-((R)-4-(3-(((trans)-4-(3-(6-Cyano-5-(trifluoromethyl)pyridin-3-yl)-5,5-dimethyl-4-oxo-2-thioxoimidazolidin-1-yl)cyclohexyl)oxy)propyl)-2-(trifluoromethyl)piperazin-1-yl)-N-(4-(2,6-dioxopiperidin-3-yl)phenyl)acetamide], the DC50 was not above 5 nM. In addition, the Ymin (given as numbers) is reported as 12 % of DMSO control.

In the case of `C[C@@H]1C[C@H](CCO[C@H]2CC[C@H](N3C(=S)N(c4ccc(C#N)c(C(F)(F)F)c4)C(=O)C3(C)C)CC2)C[C@H](C)N1CC(=O)Nc1ccc(C2CCC(=O)NC2=O)cc1` (stereo partly drawn) [Cmpd 22, 2-((2R,4r,6S)-4-(2-((trans-4-(3-(4-Cyano-3-(trifluoromethyl)phenyl)-5,5-dimethyl-4-oxo-2-thioxoimidazolidin-1-yl)cyclohexyl)oxy)ethyl)-2,6-dimethylpiperidin-1-yl)-N-(4-(2,6-dioxopiperidin-3-yl)phenyl)acetamide hydrochloride], the half-maximal degradation concentration (DC50) was not above 5 nM. Further, for the setting “class symbols”, the Ymin entry is recorded as “* (0<Y≤20%)”.

The molecule `C[C@@H]1CN(CCC[C@H]2CC[C@H](N3C(=S)N(c4ccc(C#N)c(Cl)c4)C(=O)C3(C)C)CC2)C[C@H](C)N1CC(=O)Nc1ccc(C2CCC(=O)NC2=O)cc1` (stereo partly drawn) [Cmpd 17, 2-((2S,6R)-4-(3-(trans-4-(3-(3-Chloro-4-cyanophenyl)-5,5-dimethyl-4-oxo-2-thioxoimidazolidin-1-yl)cyclohexyl)propyl)-2,6-dimethylpiperazin-1-yl)-N-(4-(2,6-dioxopiperidin-3-yl)phenyl)acetamide hydrochloride] came in with a DC50 of 5 to 15 nM. The Ymin result (class symbols) is on record as “*** (30%<Y<80%)”.

Take `C[C@@H]1CN(CCO[C@H]2CC[C@H](N3C(=S)N(c4cnc(C#N)c(C(F)(F)F)c4)C(=O)C3(C)C)CC2)C[C@H](C)N1CC(=O)Nc1ccc(C2CCC(=O)NC2=O)cc1` (stereo partly drawn) [Cmpd 6, 2-((2R,6S)-4-(2-((trans-4-(3-(6-Cyano-5-(trifluoromethyl)pyridin-3-yl)-5,5-dimethyl-4-oxo-2-thioxoimidazolidin-1-yl)cyclohexyl)oxy)ethyl)-2,6-dimethylpiperazin-1-yl)-N-(4-(2,6-dioxopiperidin-3-yl)phenyl)acetamide hydrochloride]: the DC50 is not above 5 nM. In addition, the Ymin entry (class symbols) is given as “*** (30%<Y<80%)”.

Consider `C[C@@H]1C[C@H](OCCO[C@H]2CC[C@H](N3C(=S)N(c4ccc(C#N)c(C(F)(F)F)c4)C(=O)C3(C)C)CC2)C[C@H](C)N1CC(=O)Nc1ccc(C2CCC(=O)NC2=O)cc1` (stereo partly drawn) [Cmpd 42, 2-((2R,4r,6S)-4-(2-(((trans)-4-(3-(4-Cyano-3-(trifluoromethyl)phenyl)-5,5-dimethyl-4-oxo-2-thioxoimidazolidin-1-yl)cyclohexyl)oxy)ethoxy)-2,6-dimethylpiperidin-1-yl)-N-(4-(2,6-dioxopiperidin-3-yl)phenyl)acetamide], for which the DC50 was 5 to 15 nM. In addition, the Ymin (given as numbers) is 19 % of DMSO control.

The molecule `C[C@@H]1CN(CCCO[C@H]2CC[C@H](N3C(=S)N(c4ccc(C#N)c(C(F)(F)F)c4)C(=O)C3(C)C)CC2)C[C@H](C)N1CC(=O)Nc1cccc(N2CCC(=O)NC2=O)c1` [Cmpd 19, 2-((2R,6S)-4-(3-((trans-4-(3-(4-Cyano-3-(trifluoromethyl)phenyl)-5,5-dimethyl-4-oxo-2-thioxoimidazolidin-1-yl)cyclohexyl)oxy)propyl)-2,6-dimethylpiperazin-1-yl)-N-(3-(2,4-dioxotetrahydropyrimidin-1(2H)-yl)phenyl)acetamide hydrochloride] came in with a DC50 not above 5 nM. Where the note is “class symbols”, the Ymin entry is given as “** (20%<Y≤30%)”.
